Data on one molecule can be found in article PMC8601599, “Computational redesign of a fluorogen activating protein with Rosetta” (PLoS Computational Biology, 2021).

Residue numbers refer to the chain shown, from its start.

Holding throughout (experiment): fluorescence titration
What all share (format): binding

The target in assay [1] is T1, DiB-RM-split (Escherichia coli, UniProt P0A901, A36C/F53A/N76F/S89Y/E90V/S107A/L141N).
T1 construct: gene blc; two co-expressed self-assembling fragments of DiB-RM split between residues 109 and 110; E. coli XJb(DE3), TALON then size exclusion
T1 sequence (P0A901 20-109 A36C/F53A/N76F/S89Y/E90V/S107A): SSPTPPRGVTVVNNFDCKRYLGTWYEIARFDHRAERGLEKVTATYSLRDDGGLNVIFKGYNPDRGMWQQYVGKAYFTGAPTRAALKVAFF
T1 sequence (P0A901 110-177 L141N): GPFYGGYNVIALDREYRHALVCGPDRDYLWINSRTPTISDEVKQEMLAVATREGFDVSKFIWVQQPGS
The conditions noted are these: apparent Kd, 1 μM chromophore, varied protein, excitation 490 nm. The source says: fluorescence titration on DiB-RM-split

The target in assay [2] is T2, DiB1; DiB-RM (lipocalin Blc mutants) (Escherichia coli, UniProt P0A901, A36C/F53A/N76F/E90V/S107A/L141N).
T2 construct: E. coli XJb(DE3) expression from pBAD, TALON then size exclusion; monomer in solution
T2 sequence (P0A901 20-177 A36C/F53A/N76F/E90V/S107A/L141N): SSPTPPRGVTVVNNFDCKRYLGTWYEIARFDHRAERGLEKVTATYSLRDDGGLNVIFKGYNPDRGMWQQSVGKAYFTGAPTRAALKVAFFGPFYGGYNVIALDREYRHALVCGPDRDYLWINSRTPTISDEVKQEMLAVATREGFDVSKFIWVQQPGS
The settings on record: DiB-RM-Y89S; apparent Kd; 1 μM chromophore, varied protein; excitation 490 nm. From the text: (§1) fluorescence titration on DiB1; DiB-RM (lipocalin Blc mutants)

Assay [3] concerns the target T3, DiB1; DiB-RM (lipocalin Blc mutants) (Escherichia coli, UniProt P0A901, A36C/F53A/N76F/S89Y/E90V/L141N).
T3 construct: E. coli XJb(DE3) expression from pBAD, TALON then size exclusion; monomer in solution
T3 sequence (P0A901 20-177 A36C/F53A/N76F/S89Y/E90V/L141N): T2 sequence (P0A901 20-177 A36C/F53A/N76F/E90V/S107A/L141N) with S70Y, A88S
The settings on record: DiB-RM-A107S; apparent Kd; 1 μM chromophore, varied protein; excitation 490 nm.
Excerpt: as §1

In assay [4] the target is T4, DiB1; DiB-RM (lipocalin Blc mutants) (Escherichia coli, UniProt P0A901, A36C/F53A/N76F/S89Y/E90V/S107A/L141N).
T4 construct: E. coli XJb(DE3) expression from pBAD, TALON then size exclusion; monomer in solution
T4 sequence (P0A901 20-177 A36C/F53A/N76F/S89Y/E90V/S107A/L141N): T2 sequence (P0A901 20-177 A36C/F53A/N76F/E90V/S107A/L141N) with S70Y
The conditions noted are these: apparent Kd, 1 μM chromophore, varied protein, excitation 490 nm.
Excerpt: as §1

Assay [5] has as its target T5, DiB1; DiB-RM (lipocalin Blc mutants) (Escherichia coli, UniProt P0A901, A36C/F53A/N76F/S89Y/S107A/L141N).
T5 construct: E. coli XJb(DE3) expression from pBAD, TALON then size exclusion; monomer in solution
T5 sequence (P0A901 20-177 A36C/F53A/N76F/S89Y/S107A/L141N): T2 sequence (P0A901 20-177 A36C/F53A/N76F/E90V/S107A/L141N) with S70Y, V71E
The settings on record: DiB-RM-V90E; apparent Kd; 1 μM chromophore, varied protein; excitation 490 nm.
Excerpt: as §1

Assay [6] has as its target T6, DiB1; DiB-RM (lipocalin Blc mutants) (Escherichia coli, UniProt P0A901, A36C/F53A/S89Y/E90V/S107A/L141N).
T6 construct: E. coli XJb(DE3) expression from pBAD, TALON then size exclusion; monomer in solution
T6 sequence (P0A901 20-177 A36C/F53A/S89Y/E90V/S107A/L141N): T2 sequence (P0A901 20-177 A36C/F53A/N76F/E90V/S107A/L141N) with F57N, S70Y
The conditions noted are these: DiB-RM-F76N; apparent Kd; 1 μM chromophore, varied protein; excitation 490 nm.
Excerpt: as §1

The target of assay [7] is T7, DiB1; DiB-RM (lipocalin Blc mutants) (Escherichia coli, UniProt P0A901, A36C/L141N).
T7 construct: E. coli XJb(DE3) expression from pBAD, TALON then size exclusion; monomer in solution
T7 sequence (P0A901 20-177 A36C/L141N): T2 sequence (P0A901 20-177 A36C/F53A/N76F/E90V/S107A/L141N) with A34F, F57N, V71E, A88S
The settings on record: apparent Kd, 1 μM chromophore, varied protein, excitation 490 nm.
Excerpt: as §1

For assay [8], the target named is T8, DiB1; DiB-RM (lipocalin Blc mutants) (Escherichia coli, UniProt P0A901, A36C/N76F/S89Y/E90V/S107A/L141N).
T8 construct: E. coli XJb(DE3) expression from pBAD, TALON then size exclusion; monomer in solution
T8 sequence (P0A901 20-177 A36C/N76F/S89Y/E90V/S107A/L141N): T2 sequence (P0A901 20-177 A36C/F53A/N76F/E90V/S107A/L141N) with A34F, S70Y
The settings on record: DiB-RM-A53F; apparent Kd; 1 μM chromophore, varied protein; excitation 490 nm.
Excerpt: as §1

Take `CCN(CC)c1ccc2c(c1)[B-](F)(F)[N+]1=C(C)N(C)C(=O)C1=C2` [M739]: the Kd was determined as 2800 ± 400 nM in assay [1]; 660 ± 80 nM in assay [2]; 290 ± 40 nM in assay [3]; 170 ± 40 nM in assay [4]; 380 ± 50 nM in assay [5]; 70 ± 10 nM in assay [6]. Moreover, the Kd in assay [7] is 40 ± 30 nM; in assay [8], 160 ± 40 nM.
